Measurements taken from US11472815B2, “1,4-diphenyl-1H-imidazole and 2,4-diphenylthiazole derivatives and preparation method therefor and use thereof” (SOUTHERN MEDICAL UNIVERSITY, priority 2018, dated 2022).

The molecules below were run against TLR1/2 (Homo sapiens (Human), UniProt O60603+Q15399) (assay: Detection of TLR1/2 activation activity (SEAP signal) using TLR1/2 HEK BLUE cells). Details: not given.
Assay type: cell-based
Experimental: TLR1/2 activation activity was detected using TLR1/2 HEK BLUE cells. TLR1/2 HEK BLUE cells were cultured in DMEM medium containing 10% fetal bovine serum, 1% penicillin and streptomycin, and incubated in a 37° C. cell incubator containing 5% CO2.
HEK BLUE TLR1/2 cells were spread in a 384-well plate at 20,000 cells/well, cultured at 37° C., 5% CO2 for 24 hours, 25 μL per well. When the cells grew well, 100 μM compound and doubling-diluted for 11 concentration gradients. After the cells were kept for 24 hours in the CO2 incubator, 40 μL of indigo blue solution was added to each well of the plate in the dark, and reading was conducted 4 times in an interval of 15 minutes at 620 nm to detect the signal intensity of SEAP in the cell supernatant.

Chain of TLR1/2 (Q15399 25-786): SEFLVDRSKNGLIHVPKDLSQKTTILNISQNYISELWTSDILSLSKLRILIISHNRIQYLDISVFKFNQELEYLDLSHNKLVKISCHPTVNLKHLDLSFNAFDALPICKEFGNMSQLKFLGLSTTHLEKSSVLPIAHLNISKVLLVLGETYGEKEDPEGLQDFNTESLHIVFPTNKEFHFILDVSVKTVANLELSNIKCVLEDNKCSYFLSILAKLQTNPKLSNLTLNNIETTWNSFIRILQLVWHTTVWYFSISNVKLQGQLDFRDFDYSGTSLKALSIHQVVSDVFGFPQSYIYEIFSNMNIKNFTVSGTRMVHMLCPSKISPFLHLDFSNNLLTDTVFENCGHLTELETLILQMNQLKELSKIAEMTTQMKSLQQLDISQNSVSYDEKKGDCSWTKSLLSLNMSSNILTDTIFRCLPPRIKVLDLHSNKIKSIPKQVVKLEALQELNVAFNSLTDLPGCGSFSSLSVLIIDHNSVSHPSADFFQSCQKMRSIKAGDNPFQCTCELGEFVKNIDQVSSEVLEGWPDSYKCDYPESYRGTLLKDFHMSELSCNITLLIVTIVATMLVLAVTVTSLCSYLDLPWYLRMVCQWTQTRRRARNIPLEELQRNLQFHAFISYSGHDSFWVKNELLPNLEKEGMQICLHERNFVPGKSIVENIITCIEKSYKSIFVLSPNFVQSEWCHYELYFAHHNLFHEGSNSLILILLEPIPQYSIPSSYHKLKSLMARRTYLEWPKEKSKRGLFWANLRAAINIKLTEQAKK
Chain of TLR1/2 (O60603 19-784): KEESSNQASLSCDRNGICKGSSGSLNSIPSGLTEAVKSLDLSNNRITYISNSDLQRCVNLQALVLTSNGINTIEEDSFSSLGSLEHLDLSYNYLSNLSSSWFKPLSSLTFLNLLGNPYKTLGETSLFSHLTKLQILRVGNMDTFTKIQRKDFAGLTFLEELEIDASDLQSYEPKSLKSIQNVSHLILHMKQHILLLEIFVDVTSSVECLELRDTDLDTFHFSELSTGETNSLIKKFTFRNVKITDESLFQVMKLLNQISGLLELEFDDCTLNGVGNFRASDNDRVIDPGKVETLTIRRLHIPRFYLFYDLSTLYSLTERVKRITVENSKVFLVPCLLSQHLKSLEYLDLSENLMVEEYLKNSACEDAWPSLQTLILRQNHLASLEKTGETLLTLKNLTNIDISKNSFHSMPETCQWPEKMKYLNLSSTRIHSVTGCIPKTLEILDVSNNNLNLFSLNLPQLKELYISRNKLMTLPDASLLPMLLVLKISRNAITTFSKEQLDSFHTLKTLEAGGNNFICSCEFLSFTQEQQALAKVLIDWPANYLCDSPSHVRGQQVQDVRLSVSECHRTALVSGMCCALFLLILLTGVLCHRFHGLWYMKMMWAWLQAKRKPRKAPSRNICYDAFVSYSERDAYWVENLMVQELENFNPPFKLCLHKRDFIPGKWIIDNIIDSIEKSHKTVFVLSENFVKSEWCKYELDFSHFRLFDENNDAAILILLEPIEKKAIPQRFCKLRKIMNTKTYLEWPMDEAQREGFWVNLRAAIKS

SMILES | TLR1/2 activation (in words)
CNc1ccc([N+](=O)[O-])cc1-n1cnc(-c2ccc(C(F)(F)F)cc2O)c1 [Compound 22, 2-(1-(2-(methylamino)-5-nitrophenyl)-1H-imidazol-4-yl)-5-(trifluoromethyl)phenol] | activates TLR1/2 activity in a concentration-dependent manner

Same assay, conditions: HEK BLUE TLR1/2 cells, 24 hours, SEAP read at 620 nm; highest concentration 100 μM; [‡] highest SEAP signal less than 50% of the activation value of compound 22

EC50 [nM] | TLR1/2 activation activity EC50 | SMILES
56.3 ± 7.31 |  | CCCCCCCC(=O)Oc1cc(C(F)(F)F)ccc1-c1cn(-c2cc([N+](=O)[O-])ccc2NC)cn1 [Compound 36, 2-(1-(2-(methylamino)-5-nitrophenyl)-1H-imidazol-4-yl)-5-(trifluoromethyl)phenyl octanoate]
432.86 ± 0.05 |  | CNc1ccc(C(=O)OC)cc1-n1cnc(-c2ccc(C(F)(F)F)cc2O)c1 [Compound 24, Methyl 3-(4-(2-hydroxy-4-(trifluoromethyl)phenyl)-1H-imidazol-1-yl)-4-(methylamino)benzoate]
113 ± 12.7 |  | CCCCCCCCCCCC(=O)Oc1cc(C(F)(F)F)ccc1-c1cn(-c2cc([N+](=O)[O-])ccc2NC)cn1 [Compound 37, 2-(1-(2-(methylamino)-5-nitrophenyl)-1H-imidazol-4-yl)-5-(trifluoromethyl)phenyl dodecanoate]
> 1000 |  | CNc1c(Cl)cc([N+](=O)[O-])cc1-n1cnc(-c2ccc(C#N)cc2)c1 [Compound 27, 4-(1-(3-chloro-2-(methylamino)-5-nitrophenyl)-1H-imidazol-4-yl)benzonitrile]
> 1000 |  | FC(F)(F)c1ccc(-c2csc(-c3ccccc3)n2)cc1 [Compound 3, 2-phenyl-4-(4-(trifluoromethyl)phenyl)thiazole]
92.3 ± 12.3 |  | CNc1ccc([N+](=O)[O-])cc1-n1cnc(-c2ccc(C(F)(F)F)cc2OC)c1 [Compound 28, 2-(4-(2-methoxy-4-(trifluoromethyl)phenyl)-1H-imidazol-1-yl)-N-methyl-4-nitroaniline]
> 1000 |  | CCOc1cc(C(F)(F)F)ccc1-c1cn(-c2cc([N+](=O)[O-])ccc2NC)cn1 [Compound 29, 2-(4-(2-ethoxy-4-(trifluoromethyl)phenyl)-1H-imidazol-1-yl)-N-methyl-4-nitroaniline]
45.6 ± 3.15 |  | CNC(=O)c1ccc(NC)c(-n2cnc(-c3ccc(C(F)(F)F)cc3O)c2)c1 [Compound 25, 3-(4-(2-hydroxy-4-(trifluoromethyl)phenyl)-1H-imidazol-1-yl)-N-methyl-4-(methylamino)benzamide]
764 ± 10.2 |  | CNc1ccc([N+](=O)[O-])cc1-n1cnc(-c2ccc(C(F)(F)F)cc2OCCNC(=O)CCCC[C@@H]2SC[C@@H]3NC(=O)N[C@@H]32)c1 [Compound 44, N-(2-(2-(1-(2-(methylamino)-5-nitrophenyl)-1H-imidazol-4-yl)-5-(trifluoromethyl)phenoxyl)ethyl)-5-((3AS,4S,6AR)-2-oxohexahydro-1H-thieno[3,4-d]imidazol-4-yl)pentanamide]
> 1000 |  | FC(F)(F)c1ccc(-c2csc(-c3cccc(C(F)(F)F)c3)n2)cc1 [Compound 4, 2-(3-(trifluoromethyl)phenyl)-4-(4-(trifluoromethyl)phenyl)thiazole]
> 1000 |  | CNc1ccc([N+](=O)[O-])cc1-n1cnc(-c2ccc(C(F)(F)F)cc2OCC(N)=O)c1 [Compound 42, (2-(1-(2-(methylamino)-5-nitrophenyl)-1H-imidazo-4-yl)-5-(trifluoromethyl)phenoxy)acetamide]
> 1000 |  | CNc1ccc([N+](=O)[O-])cc1-n1cnc(-c2ccc(C(F)(F)F)cc2OCCOCCOCCI)c1 [Compound 41, 2-(4-(2-(2-(2-(2-iodoethoxy)ethoxy)ethoxy)-4-(trifluoromethyl)phenyl)-1H-imidazole-1-yl)-N-methyl-4-nitroaniline]
192 ± 17.2 |  | CNc1c(Cl)cc([N+](=O)[O-])cc1-n1cnc(-c2ccc(C(F)(F)F)cc2O)c1 [Compound 26, 2-(1-(3-chloro-2-(methylamino)-5-nitrophenyl)-1H-imidazol-4-yl)-5-(trifluoromethyl)phenol]
18.8 ± 3.65 |  | CNc1ccc([N+](=O)[O-])cc1-n1cnc(-c2ccc(C(F)(F)F)cc2OC(C)=O)c1 [Compound 35, (1-(2-(methylamino)-5-nitrophenyl)-1H-imidazol-4-yl)-5-(trifluoromethyl)phenyl acetate]
16.9 ± 2.79 |  | CNc1ccc([N+](=O)[O-])cc1-n1cnc(-c2ccc(C(F)(F)F)cc2OC(=O)c2ccccc2)c1 [Compound 38, 2-(1-(2-(methylamino)-5-nitrophenyl)-1H-imidazol-4-yl)-5-(trifluoromethyl)phenyl benzoate]
 | NA[†] | FC(F)(F)c1ccc(-c2csc(-c3cc(C(F)(F)F)cc(C(F)(F)F)c3)n2)cc1 [Compound 7, 2-(3,5-bis(trifluoromethyl)phenyl)-4-(4-(trifluoromethyl)phenyl)thiazole]
24.9 ± 6.15 |  | CNc1ccc([N+](=O)[O-])cc1-n1cnc(-c2ccc(OC(F)(F)F)cc2O)c1 [Compound 21, 2-(1-(2-(methylamino)-5-nitrophenyl)-1H-imidazol-4-yl)-5-(trifluoromethoxy)phenol]
> 1000 |  | CNc1ccc([N+](=O)[O-])cc1-n1cnc(-c2ccc(C(F)(F)F)cc2OCCCBr)c1 [Compound 32, 2-(4-(2-(3-bromopropoxy)-4-(trifluoromethyl)phenyl)-1H-imidazol-1-yl)-N-methyl-4-nitroaniline]
> 1000 |  | CNc1ccc([N+](=O)[O-])cc1-n1cnc(-c2ccc(C(F)(F)F)cc2OCc2ccccc2)c1 [Compound 30, 2-(4-(2-(benzyloxy)-4-(trifluoromethyl)phenyl)-1H-imidazol-1-yl)-N-methyl-4-nitroaniline]
 | NA[†] | Oc1cc(C(F)(F)F)ccc1-c1csc(-c2cc(C(F)(F)F)cc(C(F)(F)F)c2)n1 [Compound 17, 2-(2-(3,5-bis(trifluoromethyl)phenyl)thiazol-4-yl)-5-(trifluoromethyl)phenol]
5.14 ± 0.07 |  | CNc1ccc(S(C)(=O)=O)cc1-n1cnc(-c2ccc(C(F)(F)F)cc2O)c1 [Compound 23, 2-(1-(2-(methylamino)-5-(methylsulfonyl)phenyl)-1H-imidazol-4-yl)-5-(trifluoromethyl)phenol]
4.88 ± 0.79 |  | CNc1ccc([N+](=O)[O-])cc1-n1cnc(-c2ccc(C(F)(F)F)cc2O)c1 [Compound 22, 2-(1-(2-(methylamino)-5-nitrophenyl)-1H-imidazol-4-yl)-5-(trifluoromethyl)phenol]
 | NA[†] | Oc1cc(C(F)(F)F)ccc1-c1csc(-c2ccccc2)n1 [Compound 13, 2-(2-phenylthiazol-4-yl)-5-(trifluoromethyl)phenol]
 | NA[†] | Oc1cc(C(F)(F)F)ccc1-c1csc(-c2cccc(C(F)(F)F)c2)n1 [Compound 14, 5-(trifluoromethyl)-2-(2-(3-(trifluoromethyl)phenyl)thiazol-4-yl)phenol]
> 1000 |  | CNc1ccc([N+](=O)[O-])cc1-n1cnc(-c2ccc(C(F)(F)F)cc2OCCBr)c1 [Compound 31, 2-(4-(2-(2-bromoethoxy)-4-(trifluoromethyl)phenyl)-1H-imidazol-1-yl)-N-methyl-4-nitroaniline]
12 ± 2.67 |  | CNc1ccc([N+](=O)[O-])cc1-n1cnc(-c2ccc(C(F)(F)F)cc2OC(=O)/C=C/c2ccccc2)c1 [Compound 39, (1-(2-(methylamino)-5-nitrophenyl)-1H-imidazol-4-yl)-5-(trifluoromethyl)phenyl cinnamate]

SMILES | EC50 [nM] | TLR1/2 activation activity EC50
CNc1ccc([N+](=O)[O-])cc1-n1cnc(-c2ccc(C(F)(F)F)cc2OCCOCCO)c1 [Compound 34, 2-(2-(2-(1-(2-(methylamino)-5-nitrophenyl)-1H-imidazol-4-yl)-5-(trifluoromethyl)phenoxy)ethoxy)ethanol] | > 1000 | 

Same assay, conditions: even at a low concentration (15 nM)

signal intensity of TLR1/2 alkaline phosphatase (SEAP) | SMILES
significantly activate | CNc1ccc([N+](=O)[O-])cc1-n1cnc(-c2ccc(C(F)(F)F)cc2O)c1 [Compound 22, 2-(1-(2-(methylamino)-5-nitrophenyl)-1H-imidazol-4-yl)-5-(trifluoromethyl)phenol]
